Source: patent US6426351B1, “Chelerythrine-based therapies for cancer” (priority 2000, dated 2002)
Where two headings read alike, the source gives them in different places.

Tests used:
SQ-20B xenografts = assay: SQ-20B xenograft tumor growth in nude mice; assay type: in vivo; conditions: for mean tumor volume: IP
Procedure: Athymic (nude) mice were injected SC in the right hind limb with 5×10^6 SQ20B cells. Tumors were allowed to grow for 8 days at which time treatment was started. Control mice were weighed and injected IP with PBS on days 8, 10, and 12. Treatment group 2 (n=10 were injected once IP on days 8, 10, and 12 with 2.5 mg/kg chelerythrine chloride, treatment group 3 (n=8) were injected once IP on days 8, 10, and 12 with 5 mg/kg chelerythrine chloride, and treatment group 4 (n=8) were injected once IP on days 8, 11 and 14 with 5 mg/kg chelerythrine chloride. Tumor volume was determined on days 8, 10, 13, 15, 17, 21. Each data point represents the mean of 1-3 individual studies +/−SEM. The Mann-Whitney Rank Sum Test (p<0.05) denoted in the graphs by “*”.
SQ-20B (1-5×10^6 tumor cells were injected into the right hind limbs of Sprague-Dawley nude mice (Fredrick Cancer Research Institute, Fredrick Md.). Xenografts were grown for 2-3 wk at which time animals were sorted into treatment groups such that the mean tumor volume was 45 mm^3+/−4.5 mm^3 (SD). At day 0, initial tumor volume was determined by direct measurement with calipers, and tumor volume was deterred and calculated using the equation 1×w^2×0.5 (Hallahan et al., 1995). During treatment tumor volumes were measured twice weekly and are presented as percent of original tumor volume. Data are presented as fractional tumor volume +/−SEM. Significance analyzed using the Mann-Whitney Rank Sum Test (p<0.05) and denoted in the graphs by “*”.
(§1) Control mice (n=12) were weighed and injected IP with PBS on days 8, 10, and 12. To determine the proper injection volume, the weight of a mouse (in grams) was divided by 100, and the resulting number (in μl ) was used. Chelerythrine was dissolved in the corresponding volume of PBS. Mice in treatment group 2 (n=10) were injected IP on days 8, 10, and 12 with […]. Treatment group 3 (n=8) mice revere injected IP on days 8, 11, and 14 with 5 mg/kg chelerythrine chloride. Treatment group 4 mice (n=10) were injected IP on days 8, 11, 14, and 17 with 5 mg/kg chelerythrine chloride. Volume was determined on days 8, 10, 13, 15, 17, 21. Body weight was measured on days 8, 9, 10, 11, 12, 13, 14, 15, 16, 17, 18, 21. Each data point represents the mean of 1-3 individual studies (minimum of 8 mice/treatment groups).
Mice bearing SQ-2QB xenografts (n>8 for all groups) were injected IP with 2.5 mg/kg on days 8, 10, 12 (Group 2, n=10), 5mg/kg on days 8, 10, 12 (Group 3, n=8), and 5 mg/kg on days 8, 11, 14 (Group 4, n=8). […] By day 21, the mean tumor volumes measured 370 mm^3 in control group, 215 mm^3 in group 1, 197 mm^3 in group 2, and 115 mm^3 in group 3. […]

SQ20B cells = assay: MTT cytotoxicity assay, SQ20B, dependence on exposure time; assay type: cell-based; conditions: Homo sapiens, read-out: ED50 (the source's name)
Procedure: Cytotoxicity was evaluated using modifications of a described MTT assay (Hansen et al., 1989). Briefly, cells growing as a monolayer were plated at a density of 500 cells/well in 96 well-plates and allowed to grow for 24 h. […] 6-13 days after drug treatment, 25 μl of a 5 mg/ml solution of MTT was added to each well followed 4 h later by the addition of 100 μl lysing buffer (20% sodium dodecyl sulfate, 50% N, N-dimethylformamide and 0.8% acetic acid, pH 4.7) for an additional 22 h. A microplate reader set at 570 nm was used to determine the absorbance. Results are expressed as the fraction of the optical density determined for cells treated with drug compared to those treated with vehicle.
(§2) The cytotoxic effects of chelerythrine were evaluated in 9 human tumor cell lines to assess its spectrum of activity. Chelerythrine decreased cell viability as determined by the MTT assay in a dose-dependent manner in MCF7 breast (wt p53)(Blagosklonny et al., 1995), MCF7ADR breast (resistant to adriamycin), HT29 colon (mutant p53)(Shao et al., 1997), DaOY brain (mutant p53)(U et al., 1998), and LnCaP (mutant p53) (Carroll et al., 1993) prostate cells (FIG. 2). The effective dose required to inhibit the growth by 50% of the cells (ED50) ranged between 2 and 5 μM upon exposure to drug for 4 h. […]

[1] = system: MCF7, MCF7ADR, HT29, DaOY and LnCaP cells; assay: MTT cytotoxicity assay, tumor cell line panel; assay type: cell-based; conditions: Homo sapiens, exposure to drug for 4 h, range over MCF7, MCF7ADR, read-out: ED50 (effective dose required to inhibit the growth by 50% of the cells)
Procedure: (§3) FIG. 2A depicts that MCF7 (closed circle), MCF7ADR (open circle), HT29 (open square), DAOY (closed triangle) and LnCaP (open triangle) cells were exposed to fresh medium containing increasing concentrations of chelerythrine chloride for 4 h. After 6 days (MCF7, MCF7 ADR, HT29), 7 days (DAOY) or 13 days (LnCAP), MTT analysis was performed to determine cell density. Inhibition of cell growth relative to control (zero drug addition) was calculated for each concentration. Each point represents the mean of three determinations. […] Inhibition of cell growth relative to control (zero drug addition) was calculated for each concentration. […]
(§4) Cytotoxicity was evaluated using modifications of a described MTT assay (Hansen et al., 1989). […] A microplate reader set at 570 nm was used to determine the absorbance. Results are expressed as the fraction of the optical density determined for cells treated with drug compared to those treated with vehicle.
as §2, with “2).” for “2). The effective dose required to inhibit the growth by 50% of the cells (ED50) ranged between 2 and 5 μM upon exposure to drug for 4 h.”

SQ-20B cells = assay: DAPI staining of cell and nuclear morphology (apoptosis); assay type: cell-based, human; conditions: 5 μM chelerythrine, 72 h following treatment
Procedure: DAPI was used to visualize nuclei […] and overlaid to the phase contrast image. Left, untreated control cells, right 5 μM chelerythrine treated cells.
5×10^5 SQ-20B cells were centrifuged at 1000 rpm and resuspended in approximately 100 μl of media. The cell suspension was then […] with 100 μl of DAPI (4′, 6-iamidino-2-phenylindole, Sigma, 1 μg/ml in PBT [PBS+1% Triton X-100]. One drop of this mixture was then placed on a microslide with a coverslip. The cells were viewed by fluorescence microscopy using an Olympus BX-40 microscope with a 100 Watt Mercury lamp, a 16 or 40×Fluorite objective, N.A. 0.75, (Leco #1-UB527) and a UV filter cube (ex 330-385 nm, em 420 nm, wide band pass, Leco #U-M536). Images were photographed using an Optronics cooled low-light video camera (Leco #DEI-470TB) with a 2× coupler (Leco #HR200-CMT). The image was saved to a digital file at 72 dpi for subsequent image processing with Paint Shop Pro 5 (JASC) running on a Windows NT4 workstation.
The inventors examined whether the concentrations of chelerythrine that decrease viability in the MTT assay induce apoptosis of SQ-20B cells. The inventors examined cell and nuclear morphology by DAPI staining (FIG. 3). Following exposure of SQ-20B cells to 5 μM chelerythrine, morphological changes consistent with apoptosis were observed (FIG. 3A) in nearly 100% of the cells 72 h following treatment.

[2] = system: SQ-20B, JSQ-3, SCC-35 and SCC61 cells; assay: MTT cytotoxicity assay, oral tumor cell lines; assay type: cell-based; conditions: Homo sapiens, SQ20B, range over SQ-20B, read-out: ED50 (the source's name)
Procedure: as §3, §4
as §2, with “2).” for “2). The effective dose required to inhibit the growth by 50% of the cells (ED50) ranged between 2 and 5 μM upon exposure to drug for 4 h.”

L-1210 tumor cells = conditions: cited from earlier work
SQ20B = assay: Clonogenic survival of SQ20B with chelerythrine chloride and adriamycin; assay type: cell-based, human
[3] = Body weight and deaths in treated xenograft-bearing mice; assay type: in vivo; conditions: 2.5-5 mg/kg IP
Procedure: Mice were weighed on days 8, 9, 10, 11, 12, 13, 14, 15, 16, 17, 18, 21. Symbols represent the mean weight of animals in the representative treatment groups.
as §1
At no time did body weight of any study animal fall below 90% of the initial weight at the beginning of treatment. […] Similar results were obtained in two independent studies.

[4] = Acute lethality (LD50), intraperitoneal; conditions: mouse, in vivo; intraperitoneal (IP) in mice; read-out: LD50 (dose causing a 50% mortality)
Procedure: Basal activity of the enzyme (the activity in the absence of Ca^++, phosphatidylserine and dioleine) was not affected. In the present invention, the LD50 (dose causing a 50% mortality) was 20 mg/kg intraperitoneal (IP) in mice.

Row | Structure (SMILES) | percent change in volume of treated tumors compared to control tumors (%T/C) (SQ-20B xenografts; day 21, all treatment groups) | mean tumor volume (SQ-20B xenografts; day 21, group 1 as printed) [mm^3] | mean tumor volume (SQ-20B xenografts; day 21, group 2 as printed) [mm^3] | mean tumor volume (SQ-20B xenografts; day 21, group 3 as printed) [mm^3] | EC50 (SQ20B cells; exposed for 4 h) [nM] | EC50 (SQ20B cells; exposed for 8 h) [nM] | EC50 [1] [nM] | cells with morphological changes consistent with apoptosis (SQ-20B cells) [%] | EC50 [2] [nM] | IC50 (L-1210 tumor cells) [nM] | survival (clonogenic) (SQ20B; chelerythrine chloride 2 μM alone (0 ng/mL adriamycin)) | survival (clonogenic) (SQ20B; chelerythrine chloride 4 μM alone (0 ng/mL adriamycin)) | survival (clonogenic) (SQ20B; chelerythrine chloride 6 μM alone (0 ng/mL adriamycin)) | treatment related deaths [3] | body weight relative to the initial weight at the beginning of treatment ([3]; any study animal, at any time) [%] | LD50 [4] [mg/kg] | survival (clonogenic) (SQ20B; adriamycin 1 ng/mL alone (0 chelerythrine)) | survival (clonogenic) (SQ20B; adriamycin 10 ng/mL alone (0 chelerythrine)) | survival (clonogenic) (SQ20B; adriamycin 50 ng/mL alone (0 chelerythrine))
1 | COc1ccc2c(c[n+](C)c3c4cc5c(cc4ccc23)OCO5)c1OC [chelerythrine, 1,2-dimethoxy-12-methyl[1,3]benzodioxolo[5,6-c]phenanthridinium] | less than 40% | 215 | 197 | 115 | 3700 | 1800 | 2000 to 5000 | ~100 | 4000 to 5200 | 53 | 0.99 | 0.103 | 0.034 | no treatment related deaths | ≥ 90 | 20 |  |  | 
2 | COc1cccc2c1C(=O)c1c(O)c3c(c(O)c1C2=O)C[C@@](O)(C(=O)CO)C[C@@H]3O[C@H]1C[C@H](N)[C@H](O)[C@H](C)O1 [adriamycin, reference compound] |  |  |  |  |  |  |  |  |  |  |  |  |  |  |  |  | 1.09 | 0.822 | 0.359
